According to patent publication US9556179B2 (BRISTOL-MYERS SQUIBB COMPANY, priority 2012, dated 2017):

Experiments:
CK1δ = CK1δ (Homo sapiens (Human), UniProt P48730); assay: CK1δ kinase assay (Caliper LABCHIP electrophoretic separation of fluoresceinated peptide substrate and product); assay type: biochemical; details: 200 pM enzyme, 50 μM ATP, 22 hours at room temperature
Outline: (§1)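 Kinase reactions ran 22 h at room temperature, were stopped with EDTA, and phosphorylated product was separated electrophoretically from unphosphorylated fluoresceinated peptide. Compounds were tested at eleven concentrations from 10 mM DMSO stocks. IC50 by non-linear regression.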

CK1ε = CK1ε (Homo sapiens (Human), UniProt P49674); assay: CK1ε kinase assay (Caliper LABCHIP electrophoretic separation of fluoresceinated peptide substrate and product); assay type: biochemical; details: 200 pM enzyme, 50 μM ATP, 22 hours at room temperature
Outline: as §1

Chain of CK1δ (P48730 whole entry): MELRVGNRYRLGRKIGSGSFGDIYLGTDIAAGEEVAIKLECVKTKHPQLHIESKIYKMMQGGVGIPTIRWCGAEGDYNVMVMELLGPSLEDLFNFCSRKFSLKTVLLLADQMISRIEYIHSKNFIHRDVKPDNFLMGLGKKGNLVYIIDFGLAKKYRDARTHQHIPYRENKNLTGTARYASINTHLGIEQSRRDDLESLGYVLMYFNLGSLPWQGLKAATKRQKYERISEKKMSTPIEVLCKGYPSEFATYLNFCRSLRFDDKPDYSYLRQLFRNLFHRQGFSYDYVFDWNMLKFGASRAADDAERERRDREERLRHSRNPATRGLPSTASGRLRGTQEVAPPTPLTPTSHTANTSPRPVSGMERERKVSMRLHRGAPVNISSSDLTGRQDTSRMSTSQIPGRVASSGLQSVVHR
Chain of CK1ε (P49674 whole entry): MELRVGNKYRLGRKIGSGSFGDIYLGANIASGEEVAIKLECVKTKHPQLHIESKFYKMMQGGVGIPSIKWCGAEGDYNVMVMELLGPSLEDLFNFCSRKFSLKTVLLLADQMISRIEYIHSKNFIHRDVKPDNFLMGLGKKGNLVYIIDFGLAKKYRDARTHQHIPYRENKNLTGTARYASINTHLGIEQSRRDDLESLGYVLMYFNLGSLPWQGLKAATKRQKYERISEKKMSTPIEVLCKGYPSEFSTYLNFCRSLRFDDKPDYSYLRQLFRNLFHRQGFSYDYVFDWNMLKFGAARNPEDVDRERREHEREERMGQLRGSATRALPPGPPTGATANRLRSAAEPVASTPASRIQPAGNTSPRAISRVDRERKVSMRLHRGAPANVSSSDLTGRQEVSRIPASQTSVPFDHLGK

Structure (SMILES)	IC50 (CK1δ) [nM]	IC50 (CK1ε) [nM]
O=C(Nc1cn2nc(-c3c(-c4ccc(F)cc4)ncn3C3CCN(C(=O)c4ccon4)CC3)ccc2n1)c1cncs1 [Compound 116, N-(6-(4-(4-fluorophenyl)-1-(1-(isoxazole-3-carbonyl)piperidin-4-yl)-1H-imidazol-5-yl)imidazo[1,2-b]pyridazin-2-yl)thiazole-5-carboxamide]	0.173	0.372
O=C(Nc1cn2nc(-c3c(-c4ccc(F)cc4)ncn3C3CCN(C(=O)CC(F)(F)F)CC3)ccc2n1)c1cncs1 [Compound 117, N-(6-(4-(4-fluorophenyl)-1-(1-(3,3,3-trifluoropropanoyl)piperidin-4-yl)-1H-imidazol-5-yl)imidazo[1,2-b]pyridazin-2-yl)thiazole-5-carboxamide]	0.175	0.424
O=C(Nc1cn2nc(-c3c(-c4ccc(F)cc4)ncn3C3CCN(C[C@H](O)C(F)(F)F)CC3)ccc2n1)c1cncs1 [Compound 118, (S)—N-(6-(4-(4-fluorophenyl)-1-(1-(3,3,3-trifluoro-2-hydroxypropyl)piperidin-4-yl)-1H-imidazol-5-yl)imidazo[1,2-b]pyridazin-2-yl)thiazole-5-carboxamide]	0.194	0.182
O=C(Nc1cn2nc(-c3c(-c4ccc(F)cc4)nc(C4CC4)n3C3CCNCC3)ccc2n1)c1ccnc(F)c1 [Compound 119, N-(6-(2-cyclopropyl-4-(4-fluorophenyl)-1-(piperidin-4-yl)-1H-imidazol-5-yl)imidazo[1,2-b]pyridazin-2-yl)-2-fluoroisonicotinamide]	1.21	8.27
COCCN1CCC(n2c(C3CC3)nc(-c3ccc(F)cc3)c2-c2ccc3nc(NC(=O)c4ccnc(F)c4)cn3n2)CC1 [Compound 120, N-(6-(2-cyclopropyl-4-(4-fluorophenyl)-1-(1-(2-methoxyethyl)piperidin-4-yl)-1H-imidazol-5-yl)imidazo[1,2-b]pyridazin-2-yl)-2-fluoroisonicotinamide]	1.52	16.7
NC(=O)CN1CCC(n2c(C3CC3)nc(-c3ccc(F)cc3)c2-c2ccc3nc(NC(=O)c4ccnc(F)c4)cn3n2)CC1 [Compound 121, N-(6-(1-(1-(2-amino-2-oxoethyl)piperidin-4-yl)-2-cyclopropyl-4-(4-fluorophenyl)-1H-imidazol-5-yl)imidazo [1,2-b]pyridazin-2-yl)-2-fluoroisonicotinamide]	0.489	10.8
N#CCCN1CCC(n2c(C3CC3)nc(-c3ccc(F)cc3)c2-c2ccc3nc(NC(=O)c4ccnc(F)c4)cn3n2)CC1 [Compound 122, N-(6-(1-(1-(2-cyanoethyl)piperidin-4-yl)-2-cyclopropyl-4-(4-fluorophenyl)-1H-imidazol-5-yl)imidazo[1,2-b]pyridazin-2-yl)-2-fluoroisonicotinamide]	0.446	2.86
O=C(Nc1cn2nc(-c3c(-c4ccc(F)cc4)nc(C4CC4)n3C3CCN(c4ccncc4)CC3)ccc2n1)c1ccnc(F)c1 [Compound 123, N-(6-(2-cyclopropyl-4-(4-fluorophenyl)-1-(1-(pyridin-4-yl)piperidin-4-yl)-1H-imidazol-5-yl)imidazo[1,2-b]pyridazin-2-yl)-2-fluoroisonicotinamide]	2.86	16.7
O=C(Nc1cn2nc(-c3c(-c4ccc(F)cc4)nc(C4CC4)n3C3CCN(S(=O)(=O)C4CC4)CC3)ccc2n1)c1ccnc(F)c1 [Compound 124, N-(6-(2-cyclopropyl-1-(1-(cyclopropylsulfonyl)piperidin-4-yl)-4-(4-fluorophenyl)-1H-imidazol-5-yl)imidazo[1,2-b]pyridazin-2-yl)-2-fluoroisonicotinamide]	3.72	27.1
O=C(Nc1cn2nc(-c3c(-c4ccc(F)cc4)nc(C4CC4)n3C3CCN(C(=O)Nc4ccncc4)CC3)ccc2n1)c1ccnc(F)c1 [Compound 125, N-(6-(2-cyclopropyl-4-(4-fluorophenyl)-1-(1-(pyridin-4-ylcarbamoyl)piperidin-4-yl)-1H-imidazol-5-yl)imidazo[1,2-b]pyridazin-2-yl)-2-fluoroisonicotinamide]	0.95	6.03
O=C(Nc1cn2nc(-c3c(-c4ccc(F)cc4)nc(C4CC4)n3C3CCN(C(=O)c4ccon4)CC3)ccc2n1)c1ccnc(F)c1 [Compound 126, N-(6-(2-cyclopropyl-4-(4-fluorophenyl)-1-(1-(isoxazole-3-carbonyl)piperidin-4-yl)-1H-imidazol-5-yl)imidazo[1,2-b]pyridazin-2-yl)-2-fluoroisonicotinamide]	1.66	9.02
O=C(Nc1cn2nc(-c3c(-c4ccc(F)cc4)nc(C4CC4)n3C3CCN(C(=O)CC(F)(F)F)CC3)ccc2n1)c1ccnc(F)c1 [Compound 127, N-(6-(2-cyclopropyl-4-(4-fluorophenyl)-1-(1-(3,3,3-trifluoropropanoyl)piperidin-4-yl)-1H-imidazol-5-yl)imidazo [1,2-b]pyridazin-2-yl)-2-fluoroisonicotinamide]	1.75	10.1
O=C(Nc1cn2nc(-c3c(-c4ccc(F)cc4)nc(C4CC4)n3C3CCN(Cc4ccon4)CC3)ccc2n1)c1ccnc(F)c1 [Compound 128, N-(6-(2-cyclopropyl-4-(4-fluorophenyl)-1-(1-(isoxazol-3-ylmethyl)piperidin-4-yl)-1H-imidazol-5-yl)imidazo[1,2-b]pyridazin-2-yl)-2-fluoroisonicotinamide]	0.301	6.41
Cn1nccc1CN1CCC(n2c(C3CC3)nc(-c3ccc(F)cc3)c2-c2ccc3nc(NC(=O)c4ccnc(F)c4)cn3n2)CC1 [Compound 129, N-(6-(2-cyclopropyl-4-(4-fluorophenyl)-1-(1-((1-methyl-1H-pyrazol-5-yl)methyl)piperidin-4-yl)-1H-imidazol-5-yl)imidazo[1,2-b]pyridazin-2-yl)-2-fluoroisonicotinamide]	2.28	19.1
O=C(Nc1cn2nc(-c3c(-c4ccc(F)cc4)nc(C4CC4)n3C3CCN(CCC(F)(F)F)CC3)ccc2n1)c1ccnc(F)c1 [Compound 130, N-(6-(2-cyclopropyl-4-(4-fluorophenyl)-1-(1-(3,3,3-trifluoropropyl)piperidin-4-yl)-1H-imidazol-5-yl)imidazo [1,2-b]pyridazin-2-yl)-2-fluoroisonicotinamide]	3.32	53.3
O=C(Nc1cn2nc(-c3c(-c4ccc(F)cc4)nc(C4CC4)n3C3CCN(Cc4ccncc4)CC3)ccc2n1)c1ccnc(F)c1 [Compound 131, N-(6-(2-cyclopropyl-4-(4-fluorophenyl)-1-(1-(pyridin-4-ylmethyl)piperidin-4-yl)-1H-imidazol-5-yl)imidazo [1,2-b]pyridazin-2-yl)-2-fluoroisonicotinamide]	1.97	20.7
O=C(Nc1cn2nc(-c3c(-c4ccc(F)cc4)nc(C4CC4)n3C3CCN(C4COC4)CC3)ccc2n1)c1ccnc(F)c1 [Compound 132, N-(6-(2-cyclopropyl-4-(4-fluorophenyl)-1-(1-(oxetan-3-yl)piperidin-4-yl)-1H-imidazol-5-yl)imidazo[1,2-b]pyridazin-2-yl)-2-fluoroisonicotinamide]	1.7	14.2
O=C(Nc1cn2nc(-c3c(-c4ccc(F)cc4)nc(C4CC4)n3C3CCN(Cc4ccno4)CC3)ccc2n1)c1ccnc(F)c1 [Compound 133, N-(6-(2-cyclopropyl-4-(4-fluorophenyl)-1-(1-(isoxazol-5-ylmethyl)piperidin-4-yl)-1H-imidazol-5-yl)imidazo [1,2-b]pyridazin-2-yl)-2-fluoroisonicotinamide]	0.907	13.1
O=C(Nc1cn2nc(-c3c(-c4ccc(F)cc4)nc(C4CC4)n3C3CCN(CCN4CCOCC4)CC3)ccc2n1)c1ccnc(F)c1 [Compound 134]	0.542	7.83
O=C(Nc1cn2nc(-c3c(-c4ccc(F)cc4)nc(C4CC4)n3C3CCNCC3)ccc2n1)c1cccc(-c2cccnc2)c1 [Compound 135, N-(6-(2-cyclopropyl-4-(4-fluorophenyl)-1-(piperidin-4-yl)-1H-imidazol-5-yl)imidazo[1,2-b]pyridazin-2-yl)-3-(pyridin-3-yl)benzamide]	0.745	2.6
N#CCCN1CCC(n2c(C3CC3)nc(-c3ccc(F)cc3)c2-c2ccc3nc(NC(=O)c4cccc(-c5cccnc5)c4)cn3n2)CC1 [Compound 136, N-(6-(1-(1-(2-cyanoethyl)piperidin-4-yl)-2-cyclopropyl-4-(4-fluorophenyl)-1H-imidazol-5-yl)imidazo[1,2-b]pyridazin-2-yl)-3-(pyridin-3-yl)benzamide]	0.514	8.9
NCC(=O)N1CCC(n2c(C3CC3)nc(-c3ccc(F)cc3)c2-c2ccc3nc(NC(=O)c4cccc(-c5cccnc5)c4)cn3n2)CC1 [Compound 137, N-(6-(1-(1-(2-aminoacetyl)piperidin-4-yl)-2-cyclopropyl-4-(4-fluorophenyl)-1H-imidazol-5-yl)imidazo[1,2-b]pyridazin-2-yl)-3-(pyridin-3-yl)benzamide]	0.203	5.78
O=C(Nc1cn2nc(-c3c(-c4ccc(F)cc4)nc(C4CC4)n3C3CCN(Cc4ccon4)CC3)ccc2n1)c1cccc(-c2cccnc2)c1 [Compound 138, N-(6-(2-cyclopropyl-4-(4-fluorophenyl)-1-(1-(isoxazol-3-ylmethyl)piperidin-4-yl)-1H-imidazol-5-yl)imidazo[1,2-b]pyridazin-2-yl)-3-(pyridin-3-yl)benzamide]	1.56	11
Cc1nc(-c2ccc(F)cc2)c(-c2ccc3nc(NC(=O)c4ccnc(F)c4)cn3n2)n1C1CCN(CCCF)CC1 [Compound 140, 2-fluoro-N-(6-(4-(4-fluorophenyl)-1-(1-(3-fluoropropyl)piperidin-4-yl)-2-methyl-1H-imidazol-5-yl)imidazo[1,2-b]pyridazin-2-yl)isonicotinamide]	2.29	22.2
